Data set [1] deals with C57BL/6J mice. Description: Food intake test in mouse (GHSR1a antagonists). It is filed as in vivo. The conditions noted are these: for inhibition in vivo at 10 mg/kg / inhibition in vivo at 30 mg/kg: Mus musculus. How it is done:
Male C57BL/6J mice, 18-22 g body weight, were fasted overnight (16 h before compound administration) and placed in a regular light dark cycle (6:00-18:00 light/18:00-6:00 dark). After 1 wk acclimation, animals were sorted into two groups (n=6 each, 2 per cage) based on body weight. Animals in group one were be treated with vehicle and animals in group 2 were treated with the test agent (n=6 for each group). The cumulative food intake was evaluated at 1, 2, 4, 8 and 24 hrs after drug or vehicle treatment. Food intake was measured by subtracting uneaten food from the initial premeasured food.

Data set [2] addresses T1, GHSR1a (Homo sapiens, UniProt Q92847).
T1 construct: expressed in transfected cells; host or cells: HEK293
As to the kind of experiment: Calcium FLIPR assay, GHSR-1a agonism. The data set is classed as cell-based. Details: Emax: unit not given here. The following applies: HEK293/GHSR1a cells. The method, boiled down: (§1)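 Uses HEK293 cells expressing GHSR1a, loaded with calcium dye, with FLIPR fluorescence followed for 2 min after addition at t=20 s. Agonism: compound alone. Antagonism: compound with 10 nM ghrelin, potency from reduction of ghrelin response; EC50/IC50 from dose-response curves.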

The target in data set [3] is T1, GHSR1a. As to the kind of experiment: Calcium FLIPR assay, GHSR-1a antagonism (reduction of ghrelin response). The data set is classed as cell-based. The following applies: HEK293/GHSR1a cells, ghrelin 10 nM. The method, boiled down:
as §1

Data set [4] can be described thus: Metabolic Stability (H = Human). The data set is classed as in vitro ADME.
A short description of data set [5]: Metabolic Stability (M = Mouse). The data set is classed as in vitro ADME.
Where [6] appears, read: PO 10 mg/kg + ANA (ANAM) 30 mg/kg mice.

Molecules are shown by their SMILES.

T1 sequence (Q92847 whole entry): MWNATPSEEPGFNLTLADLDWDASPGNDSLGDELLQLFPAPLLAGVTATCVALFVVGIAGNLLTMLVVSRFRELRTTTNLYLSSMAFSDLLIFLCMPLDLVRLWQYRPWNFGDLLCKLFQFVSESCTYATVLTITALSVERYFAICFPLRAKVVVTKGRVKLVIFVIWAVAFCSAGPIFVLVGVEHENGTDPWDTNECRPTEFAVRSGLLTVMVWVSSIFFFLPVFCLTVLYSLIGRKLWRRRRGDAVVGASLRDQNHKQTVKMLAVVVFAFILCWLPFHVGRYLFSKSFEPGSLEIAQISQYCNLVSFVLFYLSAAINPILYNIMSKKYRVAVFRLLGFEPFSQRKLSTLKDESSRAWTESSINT

As a reminder, the inhibition in vivo is the percentage by which the read-out fell short of the control. As a reminder, the EC50 is the concentration that produces a half-maximal response. Broadly, the IC50 is the concentration that gives 50% inhibition. With `CC(NC(=O)N(Cc1ccc(CO)cc1)C1CCN(C)CC1)c1ccc(-c2cn[nH]c2)c(Cl)c1Cl` (stereo not shown) [Compound H0553, 3-(1-(2,3-dichloro-4-(1H-pyrazol-4-yl)phenyl)ethyl)-1-(4-(hydroxymethyl)benzyl)-1-(1-methylpiperidin-4-yl)urea], the inhibition in vivo at 10 mg/kg in data set [1] (ip, 1 h, i.p. 10 mg/kg) stood at 57%. For the same compound, the concentration giving a half-maximal response (EC50) in data set [2] was > 30000 nM. For the same compound, in data set [3], the 50% inhibitory concentration (IC50) was 7 nM. In addition, in data set [4], the “Metabolic Stability H” value was “Medium”. For the same compound, in data set [5], the “Metabolic Stability M” value was “Poor”.
Consider `CC(NC(=O)N(C)C1CCN(C)CC1)c1ccc(-c2cncc(N)c2)c(Cl)c1Cl` (stereo not shown) [Compound H0704, 3-(1-(4-(5-aminopyridin-3-yl)-2,3-dichlorophenyl)ethyl)-1-methyl-1-(1-methylpiperidin-4-yl)urea], for which the inhibition in vivo at 10 mg/kg in data set [1] (ip, 2 h, i.p. 10 mg/kg) stood at 32%. In addition, the half-maximal effective concentration (EC50) in data set [2] was > 30000 nM. The IC50 in data set [3] was 19 nM. Besides, the “Metabolic Stability H” value in data set [4] was “High”. Moreover, the “Metabolic Stability M” value in data set [5] is “Medium”.
On to `Cc1cncc(-c2ccc(C(C)NC(=O)N(C)C3CCN(C)CC3)c(Cl)c2Cl)c1` (stereo not shown) [Compound H0639, 3-(1-(2,3-dichloro-4-(5-methylpyridin-3-yl)phenyl)ethyl)-1-methyl-1-(1-methylpiperidin-4-yl)urea], for which the “Mouse Food Intake, result in words” value in data set [1] (i.p. 10 mg/kg) was “NSE (10 mg/kg)”. The EC50 in data set [2] was > 30000 nM. In addition, in data set [3], the IC50 is 48 nM. Besides, the “Metabolic Stability H” value in data set [4] is reported as “Medium H Medium M”. For the same compound, the “Metabolic Stability M” value in data set [5] is recorded as “Medium H Medium M”.
Regarding `CC(NC(=O)N(C)C1CCN(C)CC1)c1ccc(Cl)c(Cl)c1Cl` (stereo not shown) [Compound H0381, 1-methyl-1-(1-methylpiperidin-4-yl)-3-(1-(2,3,4-trichlorophenyl)ethyl)urea], in data set [1] (i.p., dose not given), the “Mouse Food Intake, result in words” value was “IP: No effect”. Also, the EC50 in data set [2] is > 30000 nM. Besides, in data set [3], the IC50 was found to be 12 nM. Moreover, the “Metabolic Stability H” value in data set [4] is “Medium”. Further, the “Metabolic Stability M” value in data set [5] is listed as “Meidum”.
Compound `CC(NC(=O)N(O)C1CCN(C)CC1)c1ccc(-c2cncc(C#N)c2)c(Cl)c1Cl` (stereo not shown) [Compound H0667, 3-(1-(2,3-dichloro-4-(5-cyanopyridin-3-yl)phenyl)ethyl)-1-hydroxy-1-(1-methylpiperidin-4-yl)urea] yielded an inhibition in vivo at 10 mg/kg in data set [1] (ip, 1 h, i.p. 10 mg/kg) of 76%. Further, in data set [2], the concentration for a half-maximal effect (EC50) was found to be 3 nM and the Emax stood at 4887. In addition, in data set [3], the concentration for half-maximal inhibition (IC50) was < 1 nM. Also, the “Metabolic Stability H” value in data set [4] was “High H High M”. Moreover, in data set [5], the “Metabolic Stability M” value is on record as “High H High M”.
As for `CC(NC(=O)N(C)C1CCN(C)CC1)c1ccc(-c2ccsc2)c(Cl)c1Cl` (stereo not shown) [Compound H0498, 3-(1-(2,3-dichloro-4-(thiophen-3-yl)phenyl)ethyl)-1-methyl-1-(1-methylpiperidin-4-yl)urea], the inhibition in vivo at 30 mg/kg in data set [1] (ip, 1 h, i.p. 30 mg/kg) amounted to 76%. In addition, the EC50 in data set [2] is > 30000 nM. The IC50 in data set [3] was found to be 29 nM. In addition, the “Metabolic Stability H” value in data set [4] is recorded as “Medium”. Also, in data set [5], the “Metabolic Stability M” value is given as “High”.
As to `CC(NC(=O)N(C)C1CCN(C)CC1)c1ccc(-c2ccncc2)c(Cl)c1Cl` (stereo not shown) [Compound H0497, 3-(1-(2,3-dichloro-4-(pyridin-4-yl)phenyl)ethyl)-1-methyl-1-(1-methylpiperidin-4-yl)urea], the “Mouse Food Intake, result in words” value in data set [1] (i.p. 30 mg/kg) is “NSE (30 mg/kg)”. The concentration giving a half-maximal response (EC50) in data set [2] is > 30000 nM. Moreover, the IC50 in data set [3] was determined as 24 nM. Moreover, the “Metabolic Stability H” value in data set [4] is recorded as “Medium H Medium M”. The “Metabolic Stability M” value in data set [5] was “Medium H Medium M”.
With `CN1CCC(N(C)C(=O)NC(CC2CC2)c2ccc(-c3cnccn3)c(Cl)c2Cl)CC1` (stereo not shown) [Compound H0722, 3-(2-cyclopropyl-1-(2,3-dichloro-4-(pyrazin-2-yl)phenyl)ethyl)-1-methyl-1-(1-methylpiperidin-4-yl)urea], the inhibition in vivo at 10 mg/kg in data set [1] (ip, 1 h, i.p. 10 mg/kg) was 90%. The “Mouse Food Intake, result in words” value in data set [1] (PO 30 mg/kg) is “NSE”. In addition, the EC50 in data set [2] was > 30000 nM. In data set [3], the IC50 came out at 13 nM. Further, the “Metabolic Stability H” value in data set [4] was “High H High M”. For the same compound, the “Metabolic Stability M” value in data set [5] is “High H High M”.
As to `C[C@@H](NC(=O)N(C)C1CCN(C)CC1)c1ccc(-c2cncc(F)n2)c(Cl)c1Cl` [Compound H0848, (R)-3-(1-(2,3-dichloro-4-(6-fluoropyrazin-2-yl)phenyl)ethyl)-1-methyl-1-(1-methylpiperidin-4-yl)urea], the “Mouse Food Intake, result in words” value in data set [1] (setting [6]) is “PO 10 mg/kg + ANA 30 mg/kg mice: NSE”. Also, in data set [2], the concentration for a half-maximal effect (EC50) was > 30000 nM. In addition, in data set [3], the IC50 amounted to 432 nM. Further, the “Metabolic Stability H” value in data set [4] was “Medium”. Also, the “Metabolic Stability M” value in data set [5] was “High”.
Consider `CC(NC(=O)N(C)C1CCN(C)CC1)c1ccc(-c2cnccn2)c(Cl)c1Cl` (stereo not shown) [Compound H0700, 3-(1-(2,3-dichloro-4-(pyrazin-2-yl)phenyl)ethyl)-1-methyl-1-(1-methylpiperidin-4-yl)urea], for which the inhibition in vivo at 10 mg/kg turned out to be 71% in data set [1] (1 h, Fed mice, 10 mg/kg) and 41% in data set [1] (ip, 2 h, i.p. 10 mg/kg). The EC50 in data set [2] is > 30000 nM. Besides, the IC50 in data set [3] was 7 nM. In addition, the “Metabolic Stability H” value in data set [4] was “High H High M”. Also, the “Metabolic Stability M” value in data set [5] is on record as “High H High M”.
Regarding `CN1CCC(N(O)C(=O)NC(CC2CC2)c2ccc(-c3cnccn3)c(Cl)c2Cl)CC1` (single isomer, unassigned) [Compound H0782, 3-(2-cyclopropyl-1-(2,3-dichloro-4-(pyrazin-2-yl)phenyl)ethyl)-1-hydroxy-1-(1-methylpiperidin-4-yl)urea], in data set [1] (ip, 1 h, i.p. 10 mg/kg), the inhibition in vivo at 10 mg/kg is 93%. Also, in data set [2], the concentration for a half-maximal effect (EC50) was determined as 6 nM and the Emax came out at 1923. For the same compound, the IC50 in data set [3] turned out to be 5 nM.
As for `C[C@H](NC(=O)N(C)C1CCN(C)C1)c1ccc(C#CC2CC2)c(Cl)c1Cl` (stereo partly drawn) [Compound H0838, 3-((S)-1-(2,3-dichloro-4-(cyclopropylethynyl)phenyl)ethyl)-1-methyl-1-(1-methylpyrrolidin-3-yl)urea], the “Mouse Food Intake increase, activity up to” value in data set [1] (30 mg/kg PO mice) is listed as ≤ 8 h. Also, in data set [1] (2 h, 30 mg/kg PO mice), the “Mouse Food Intake % increase” value amounted to 205%. In addition, in data set [2], the EC50 was found to be 21 nM and the Emax was determined as 1340. Further, the IC50 in data set [3] came to 4 nM.
For `CC(NC(=O)N(C)C1CCN(C)CC1)c1ccc(-c2cccs2)c(Cl)c1Cl` (single isomer, unassigned) [Compound H0563, 3-(1-(2,3-dichloro-4-(thiophen-2-yl)phenyl)ethyl)-1-methyl-1-(1-methylpiperidin-4-yl)urea], the inhibition in vivo at 10 mg/kg in data set [1] (ip, 1 h, i.p. 10 mg/kg) is 65%. Further, in data set [2], the EC50 was 3 nM and the Emax was determined as 2100. The “Metabolic Stability H” value in data set [4] is “Medium H Medium M”. For the same compound, in data set [5], the “Metabolic Stability M” value is given as “Medium H Medium M”.
As for `CC(NC(=O)N(C)C1CCN(C)CC1)c1ccc(-c2csc(C3CC3)n2)c(Cl)c1Cl` (stereo not shown) [Compound H0841, 3-(1-(2,3-dichloro-4-(2-cyclopropylthiazol-4-yl)phenyl)ethyl)-1-methyl-1-(1-methylpiperidin-4-yl)urea], the “Mouse Food Intake, result in words” value in data set [1] (setting [6]) was “PO 10 mg/kg + ANAM 30 mg/kg mice: NSE”. In addition, the EC50 in data set [2] is > 30000 nM. Besides, the half-inhibitory concentration (IC50) in data set [3] was determined as 118 nM.
Consider `CC(NC(=O)N(C)C1CCN(C)CC1)c1ccc(C#CC2CC2)c(Cl)c1Cl` (single isomer, unassigned) [Compound H0819, 3-(1-(2,3-dichloro-4-(cyclopropylethynyl)phenyl)ethyl)-1-methyl-1-(1-methylpiperidin-4-yl)urea], for which the “Mouse Food Intake, result in words” value in data set [1] (30 mg/kg PO fasted mice) is on record as 30 mg/kg PO fasted mice NSE. Besides, in data set [2], the EC50 is 140 nM and the Emax was 1419. The IC50 in data set [3] worked out at 65 nM.
Turning to `CC(NC(=O)N(C)C1CCN(C)CC1)c1ccc(-c2nccnc2F)c(Cl)c1Cl` (stereo not shown) [Compound H0840], the “Mouse Food Intake, result in words” value in data set [1] (setting [6]) is recorded as “PO 10 mg/kg + ANA 30 mg/kg mice: NSE”. In addition, in data set [2], the EC50 is > 30000 nM. In addition, in data set [3], the IC50 came to 47 nM.
Regarding `C[C@@H](NC(=O)N(C)C1CCN(C)CC1)c1ccc(-c2cnccn2)c(Cl)c1Cl` [Compound H0817, (R)-3-(1-(2,3-dicholoro-4-(pyrazin-2-yl)phenyl)ethyl)-1-methyl-1-(1-methylpiperidin-4-yl)urea], the “Mouse Food Intake, result in words” value in data set [1] (30 mg/kg PO fasted mice) worked out at 30 mg/kg PO fasted mice NSE. The EC50 in data set [2] is > 30000 nM. In addition, the half-inhibitory concentration (IC50) in data set [3] was 94 nM.
Consider `CC(NC(=O)N(C)C1CCN(C)CC1)c1ccc(-c2cccc(N)c2)c2ccccc12` (stereo not shown) [Compound H0591, 3-(1-(4-(3-aminophenyl)naphthalen-1-yl)ethyl)-1-methyl-1-(1-methylpiperidin-4-yl)urea], for which the EC50 in data set [2] amounted to 126 nM. The 50% inhibitory concentration (IC50) in data set [3] was 11 nM. Besides, in data set [4], the “Metabolic Stability H” value is recorded as “Medium H Medium M”. Further, the “Metabolic Stability M” value in data set [5] is given as “Medium H Medium M”.
Compound `CC(NC(=O)N(C)C1CCN(C)CC1)c1ccc(C#CC2CC2)c(Cl)c1Cl` (single isomer, unassigned) [Compound H0818, 3-(1-(2,3-dichloro-4-(cyclopropylethynyl)phenyl)ethyl)-1-methyl-1-(1-methylpiperidin-4-yl)urea] returned an inhibition in vivo at 30 mg/kg in data set [1] (po, 4 h, 30 mg/kg PO fasted mice) of 22%. In data set [2], the EC50 was found to be 3.5 nM and the Emax came to 1915. The IC50 in data set [3] came to 1.7 nM.

The record behind these values is US9546157B2, “Asymmetric piperidinyl-substituted ureas as medicines” (Helsinn Healthcare SA, priority 2014, dated 2017).
